Measurements reported in ChEMBL document CHEMBL3044727, “Syntheses, spectral, crystallographic, antimicrobial, and antioxidant studies of few Mannich bases” (2012).

Legend:
Type in all cases: functional
[1] = system: Salmonella typhi; assay: Antimicrobial activity against Salmonella enterica subsp. enterica serovar Typhi MTCC 3917 at 40 ug after 24 hr by streak plate method; details: MTCC 3917, 24 h, read-out: IZ
[2] = system: Bacillus subtilis; assay: Antimicrobial activity against Bacillus subtilis MTCC 4905 at 20 ug after 24 hr by streak plate method; details: MTCC 4905, 24 h, read-out: IZ
[3] = system: Escherichia coli; assay: Antimicrobial activity against Escherichia coli MTCC 3261 at 20 ug after 24 hr by streak plate method; details: MTCC 3261, 24 h, read-out: IZ
[4] = system: Bacillus subtilis; assay: Antimicrobial activity against Bacillus subtilis MTCC 4905 at 40 ug after 24 hr by streak plate method; details: MTCC 4905, 24 h, read-out: IZ
[5] = system: Salmonella typhi; assay: Antimicrobial activity against Salmonella enterica subsp. enterica serovar Typhi MTCC 3917 at 20 ug after 24 hr by streak plate method; details: MTCC 3917, 24 h, read-out: IZ
[6] = system: Salmonella typhi; assay: Antimicrobial activity against Salmonella enterica subsp. enterica serovar Typhi MTCC 3917 at 60 ug after 24 hr by streak plate method; details: MTCC 3917, 24 h, read-out: IZ
[7] = system: Escherichia coli; assay: Antimicrobial activity against Escherichia coli MTCC 3261 at 60 ug after 24 hr by streak plate method; details: MTCC 3261, 24 h, read-out: IZ
[8] = system: Bacillus subtilis; assay: Antimicrobial activity against Bacillus subtilis MTCC 4905 at 60 ug after 24 hr by streak plate method; details: MTCC 4905, 24 h, read-out: IZ
[9] = system: Escherichia coli; assay: Antimicrobial activity against Escherichia coli MTCC 3261 at 40 ug after 24 hr by streak plate method; details: MTCC 3261, 24 h, read-out: IZ
[10] = system: Radical scavenging activity; assay: Antioxidant activity assessed as DPPH radical scavenging activity at 50 ug
[11] = Antioxidant activity assessed as inhibition of linoleic acid peroxidation at 75 ug by FTC method
[12] = system: Radical scavenging activity; assay: Antioxidant activity assessed as DPPH radical scavenging activity at 25 ug
[13] = system: Radical scavenging activity; assay: Antioxidant activity assessed as DPPH radical scavenging activity at 100 ug
[14] = Antioxidant activity assessed as inhibition of linoleic acid peroxidation at 125 ug by FTC method
[15] = Antioxidant activity assessed as inhibition of linoleic acid peroxidation at 25 ug by FTC method
[16] = Antioxidant activity assessed as inhibition of linoleic acid peroxidation at 100 ug by FTC method
[17] = system: Radical scavenging activity; assay: Antioxidant activity assessed as DPPH radical scavenging activity at 75 ug
[18] = system: Radical scavenging activity; assay: Antioxidant activity assessed as DPPH radical scavenging activity at 125 ug
[19] = Antioxidant activity assessed as inhibition of linoleic acid peroxidation at 50 ug by FTC method
[20] = system: Aspergillus oryzae; assay: Antimicrobial activity against Aspergillus oryzae MTCC 3782 at 40 ug after 48 hr by streak plate method; details: MTCC 3782, 48 h, read-out: IZ
[21] = system: Aspergillus fumigatus; assay: Antimicrobial activity against Aspergillus fumigatus MTCC 6594 at 60 ug after 48 hr by streak plate method; details: MTCC 6594, 48 h, read-out: IZ
[22] = system: Aspergillus oryzae; assay: Antimicrobial activity against Aspergillus oryzae MTCC 3782 at 20 ug after 48 hr by streak plate method; details: MTCC 3782, 48 h, read-out: IZ
[23] = system: Radical scavenging activity; assay: Antioxidant activity assessed as DPPH radical scavenging activity
[24] = system: Aspergillus oryzae; assay: Antimicrobial activity against Aspergillus oryzae MTCC 3782 at 60 ug after 48 hr by streak plate method; details: MTCC 3782, 48 h, read-out: IZ
[25] = Antioxidant activity assessed as inhibition of linoleic acid peroxidation by FTC method
[26] = system: Aspergillus fumigatus; assay: Antimicrobial activity against Aspergillus fumigatus MTCC 6594 at 40 ug after 48 hr by streak plate method; details: MTCC 6594, 48 h, read-out: IZ

Row | Compound | zone of inhibition at 40 µg/disc [1] | zone of inhibition at 20 µg/disc [2] | zone of inhibition at 20 µg/disc [3] | zone of inhibition at 40 µg/disc [4] | zone of inhibition at 20 µg/disc [5] | zone of inhibition at 60 µg/disc [6] | zone of inhibition at 60 µg/disc [7] | zone of inhibition at 60 µg/disc [8] | zone of inhibition at 40 µg/disc [9] | Activity [10] | inhibition [11] | Activity [12] | Activity [13] | inhibition [14] | inhibition [15] | inhibition [16] | Activity [17] | Activity [18] | inhibition [19] | zone of inhibition at 40 µg/disc [20] | further results
1 | CC1(C)S[C@@H]2[C@H](NC(=O)Cc3ccccc3)C(=O)N2[C@H]1C(=O)O [PENICILLIN G] | 24 mm | 25 mm | 24 mm | 26 mm | 20 mm | 24 mm | 31 mm | 26 mm | 30 mm | – | – | – | – | – | – | – | – | – | – | – | –
2 | VITAMIN E | – | – | – | – | – | – | – | – | – | 47% | 27% | 45% | 50% | 33% | 23% | 29% | 49% | 51% | 26% | – | –
3 | O=C1CCC(=O)N1CNc1ccccc1 | – | – | – | – | – | – | – | – | – | 14% | 16% | 10% | 20% | 20% | 12% | 19% | 18% | 23% | 15% | – | –
4 | O=C1CCC(=O)N1C(Nc1ccccn1)c1ccccc1 (centres undefined) | 1 mm | – | – | 7 mm | – | 6 mm | 7 mm | 12 mm | 4 mm | 19% | 18% | 16% | 23% | 21% | 15% | 19% | 20% | 25% | 17% | 10 mm | zone of inhibition at 60 µg/disc [21]: 3 mm; zone of inhibition at 20 µg/disc [22]: 12 mm; Activity [23]: Dose-dependent effect; zone of inhibition at 60 µg/disc [24]: 9 mm; inhibition [25]: Dose-dependent effect
5 | O=C(NC(c1ccccc1)c1cc2ccccc2cc1O)NC(c1ccccc1)c1cc2ccccc2cc1O (centres undefined) | 21 mm | 4 mm | – | 4 mm | 20 mm | 23 mm | 9 mm | 3 mm | 8 mm | 27% | 18.3% | 28% | 37% | 24% | 17% | 19% | 35% | 40% | 17% | 8 mm | zone of inhibition at 60 µg/disc [21]: 11 mm; zone of inhibition at 40 µg/disc [26]: 6 mm; Activity [23]: Dose-dependent effect; zone of inhibition at 60 µg/disc [24]: 12 mm; inhibition [25]: Dose-dependent effect
6 | CN[C@@H]1[C@H](O[C@H]2[C@H](O[C@H]3[C@H](O)[C@@H](O)[C@H](N=C(N)N)[C@@H](O)[C@@H]3N=C(N)N)O[C@@H](C)[C@]2(O)C=O)O[C@@H](CO)[C@H](O)[C@H]1O [STREPTOMYCIN] | 40 mm | 30 mm | 31 mm | 33 mm | 36 mm | 40 mm | 45 mm | 41 mm | 39 mm | – | – | – | – | – | – | – | – | – | – | – | –
